Experimental data taken from US4897391A, “Tricyclic anti-allergy, antiinflammatory and anti-hyperproliferative compounds” (Schering Corporation, priority 1988, dated 1990).
Where a name gives a salt, the structure may show the parent alone. Read-outs that look alike come from different tables or passages of the source.

Experiments:
5-lipoxygenase = molecular target: T1, 5-lipoxygenase (Mus musculus, UniProt P48999); test: 5-Lipoxygenase Assay (MC-9 mast cells, 5-HETE and LTC4 production); type: cell-based, murine; settings: for inhibition at 3.12 µM: MC9, 3.12 μM dose; for inhibition at 6.25 µM: MC9, 6.25 μM dose; for inhibition at 12.5 µM: MC9, 12.5 μM dose; for inhibition at 25 µM: MC9, 25 μM dose
T1 construct: Preincubate MC-9 cells (0.39 ml at 7.5×10^6 cells/ml) without or with test compound; endogenous in cells; host or cells: MC-9 murine mast cell clone (interleukin-3-dependent)
T1 sequence (P48999 1-674): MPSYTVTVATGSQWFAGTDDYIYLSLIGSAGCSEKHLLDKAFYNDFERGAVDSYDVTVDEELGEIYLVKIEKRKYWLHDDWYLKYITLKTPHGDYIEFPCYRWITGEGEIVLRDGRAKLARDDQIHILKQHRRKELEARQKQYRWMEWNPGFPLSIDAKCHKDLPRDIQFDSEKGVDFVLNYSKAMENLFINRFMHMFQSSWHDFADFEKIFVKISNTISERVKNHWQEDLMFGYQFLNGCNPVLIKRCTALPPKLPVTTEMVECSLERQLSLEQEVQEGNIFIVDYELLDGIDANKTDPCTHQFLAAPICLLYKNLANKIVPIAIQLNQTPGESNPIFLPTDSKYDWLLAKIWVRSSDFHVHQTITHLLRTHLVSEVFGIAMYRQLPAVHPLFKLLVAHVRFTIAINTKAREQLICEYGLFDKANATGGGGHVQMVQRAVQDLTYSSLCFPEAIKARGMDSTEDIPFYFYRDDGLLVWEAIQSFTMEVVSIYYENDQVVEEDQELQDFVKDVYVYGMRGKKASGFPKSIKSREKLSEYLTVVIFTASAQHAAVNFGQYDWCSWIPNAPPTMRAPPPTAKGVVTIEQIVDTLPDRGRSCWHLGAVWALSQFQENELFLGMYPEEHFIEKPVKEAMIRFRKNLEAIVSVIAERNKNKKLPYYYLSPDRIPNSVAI
Protocol: Preincubate MC-9 cells (0.39 ml at 7.5×10^6 cells/ml) without or with test compound dissolved in dimethylsulfoxide (DMSO) vehicle (to a final volume 1 μl) for 4 minutes then incubate for 5 minutes with [^14 C]arachidonic acid (Amersham, 59 Ci/mole) at a 9 μM final concentration, and A23187 (Calbiochem) at a 1 μM final concentration in 10 μl of water:ethanol (9:1). Stop the reaction by addition of methanol (0.4 ml), and remove cellular debris by centrifugation. Run aliquots (250 μl) of the incubations on a Waters two-pump HPLC system fitted with a Waters radial compression column (C18, 10 micron, 8×100 mm, micro-Bondapak) and C18 "Guard Pak". Initially elute the column at 3 ml/min with water:methanol:acetic acid (67:33:0.08) containing 1 mM EDTA adjusted to pH 6.0 with ammonium hydroxide (Pump A). At 4 minutes, establish a linear gradient to reach 100% methanol (Pump B) at 9 minutes. Between 13 and 14 minutes, exchange for the initial eluting solvent and by 19 minutes the column will be reequilibrated for the next sample. Analyze the effluent by a continuous flow radioactivity monitor (model ROMONA-D) interfaced with a Hewlett Packard Lab Automation System for quantitation of radioactive products. […] Doses in table 2 are 50 μM unless otherwise noted.

[1] = system: Peptidoleukotriene Release in Guinea Pig Lung; test: Peptidoleukotriene Release Inhibition in Lung Assay; type: cell-based; settings: Cavia porcellus; final concentration of 50 μm (so in the source); ovalbumin challenge, sensitized guinea pig lung
Description: The anti-allergy method of this invention is identified by tests that measure inhibition of leukotriene release in sensitized guinea pigs by compounds of the invention. This procedure is as follows.
First, kill sensitized guinea pigs by a blow to the head, remove the lungs and clean them of visible connective tissue, trachea and large blood vessels. Slice the lungs from individual animals into fragments approximately 1 mm in thickness using a McIlwain tissue chopper and wash them with oxygenated Tyrode's buffer. Transfer weighed aliquots (approximately 400 mg wet weight) of lung into vials containing 2 ml of fresh Tyrode's solution (containing 10 mM cysteine) and incubate in the presence or absence of test compound for 12 minutes at 37° C., challenge the tissues with 20 μg ovalbumin/ml (final concentration) and incubate for 15 minutes. To measure leukotriene release, extract an aliquot of supernatant fluid with 4 volumes of 100% ethanol. After removal of the precipitated protein, dry the clear fluid under a stream of N2 gas. Measure the leukotriene content by a radioimmunoassay using [^3 H]LTC4 (leukotriene C4) and antiserum obtained from New England Nuclear. […] Calculate percent inhibition of leukotriene release by comparing for each lung the release in the presence of the test compound to that in the absence of test compound.

[2] = MC9, 50 μM dose, MC-9 cells, read-out: % Inhibition 5-HETE
[3] = MC9, 50 μM dose, MC-9 cells, read-out: % Inhibition LTC4
[4] = MC-9 cells, read-out: % Inhibition 5-HETE
[5] = MC-9 cells, read-out: % Inhibition LTC4

Row | SMILES | inhibition at 50 µM (5-lipoxygenase; [2]) [%] | inhibition at 50 µM [1] [%] | further results
1 | CC(=O)Oc1cc(OC(C)=O)c2c(-c3ccccc3)c3n(c(=O)c2c1)CCC3 [7,9-bis(acetyloxy)-2,3-dihydro-10-phenyl-6H-pyrrolo[1,2-b]isoquinolin-5(1H)-one] | 18 | 76 | inhibition at 50 µM (5-lipoxygenase; [3]): 10%
2 | O=c1[nH]c2c(c3c(O)cc(O)cc13)CCC2 | 31 | – | –
3 | O=c1[nH]c2c(c3c(O)cc(O)cc13)CCCC2 [1,3,4,5-tetrahydro-8,10-dihydroxy-phenanthridin-6(2H)-one] | 31 | – | –
4 | CC(=O)Oc1cc(OC(C)=O)c2c(-c3ccccc3)c[nH]c(=O)c2c1 [5,7-bis(acetyloxy)-4-phenyl-1(2H)-isoquinolinone] | 19 | – | inhibition at 50 µM (5-lipoxygenase; [3]): 16%
5 | CC(=O)Oc1cc(OC(C)=O)c2c(-c3ccccc3)c3n(c(=O)c2c1)CCCC3 [8,10-bis(acetyloxy)-1,2,3,4,-tetrahydro-11-phenyl-6H-benzo[b]quinolizin-6-one] | 21 | 66 | –
6 | CC(=O)Oc1cc(OC(C)=O)c2c(-c3ccccc3)c(C)[nH]c(=O)c2c1 [5,7-bis(acetyloxy)-3-methyl-4-phenyl-1(2H)-isoquinolinone] | 31 | 12 | inhibition at 50 µM (5-lipoxygenase; [3]): 27%
7 | CC(=O)Oc1ccc2c(c1)C(=O)N1CCCCC1C2(C)O (stereo not shown) [8-acetyloxy-1,2,3,4,11,11a-hexahydro-11-hydroxy-11-methyl-6H-benzo[b]quinolizin-6-one] | 5 | – | –
8 | CC(=O)Oc1cc(OC(C)=O)c2c3c([nH]c(=O)c2c1)CCCC3 [8,10-bis(acetyloxy)-1,3,4,5,6-tetrahydro-6(2H)-phenanthridinone] | 56 | 36 | inhibition at 50 µM (5-lipoxygenase; [3]): 41%
9 | CC(=O)Oc1cc(OC(C)=O)c2c(OC(C)=O)c3n(c(=O)c2c1)CCCC3 [8,10,11-tris(acetyloxy)-1,2,3,4-tetrahydro-6H-benzo[b]quinolizin-6-one] | 2 | 39 | –
10 | CC(=O)Oc1ccc2c(=O)n3c(c(C)c2c1OC(C)=O)CCCC3 [9,10-bis(acetyloxy)-1,2,3,4-tetrahydro-11-methyl-6H-benzo[b]quinolizin-6-one] | 74 | 84 | –
11 | CC(=O)Oc1cc(OC(C)=O)c2c(-c3ccccc3)c(C)n(C)c(=O)c2c1 [5,7-bis(acetyloxy)-2,3-dimethyl-4-phenyl-1(2H)-isoquinolinone] | 5 | 45 | –
12 | O=C1c2cc(O)cc(O)c2C(O)(c2ccccc2)C2CCCCN12 (stereo not shown) [1,2,3,4,11,11a-hexahydro-8,10,11-trihydroxy-11-phenyl-6H-benzo[b]quinolizin-6-one] | 23 | – | inhibition at 50 µM (5-lipoxygenase; [3]): 32%
13 | CC(=O)Oc1cc(OC(C)=O)c2c3c(n(C)c(=O)c2c1)CCC3 | 56 | – | –
14 | CC(=O)Oc1ccc2c(C)c3n(c(=O)c2c1OC(C)=O)CCCC3 [D, 7,8-bis(acetyloxy)-1,2,3,4-tetrahydro-11-methyl-6H-benzo[b]quinolizin-6-one] | 98 | 62 | –
15 | Cc1c2n(c(=O)c3cc(O)cc(O)c13)CCCC2 [C, 1,2,3,4-tetrahydro-8,10-dihydroxy-11-methyl-6H-benzo[b]quinolizin-6-one] | 100 | 61 | –
16 | CC(=O)Oc1cc(OC(C)=O)c2c(C)c[nH]c(=O)c2c1 [5,7-bis(acetyloxy)-4-methyl-1(2H)-isoquinolinone] | 43 | – | inhibition at 50 µM (5-lipoxygenase; [3]): 40%
17 | CC(=O)Oc1cc(OC(C)=O)c2c(C)c3n(c(=O)c2c1)CCCC3 [A, 8,10-bis(acetyloxy)-1,2,3,4-tetrahydro-11-methyl-6H-benzo[b]quinolizin-6-one] | – | 69 | inhibition at 3.12 µM (5-lipoxygenase; [4]): 50%; inhibition at 3.12 µM (5-lipoxygenase; [5]): 57%; inhibition at 6.25 µM (5-lipoxygenase; [4]): 65%; inhibition at 6.25 µM (5-lipoxygenase; [5]): 59%; inhibition at 12.5 µM (5-lipoxygenase; [4]): 62%; inhibition at 12.5 µM (5-lipoxygenase; [5]): 54%; inhibition at 25 µM (5-lipoxygenase; [4]): 93%; inhibition at 25 µM (5-lipoxygenase; [5]): 90%
18 | Cc1c2n(c(=O)c3cc(O)cc(O)c13)CCCC2 [1,2,3,4-tetrahydro-8,10-dihydroxy-11-methyl-6H-benzo[b]quinolizin-6-one, disodium salt] | – | 71 | inhibition at 50 µM (5-lipoxygenase; MC9, read-out: % Inhibition 5-HETE): 88%
19 | Cc1c2n(c(=O)c3cc(OC(=O)C(C)(C)C)cc(OC(=O)C(C)(C)C)c13)CCCC2 [8,10-bis(2,2-dimethyl-1-oxopropoxy)-11-methyl-1,3,4,6-tetrahydro-6H-benzo[b]quinolizin-6-one] | 45 | 5 | –
20 | CC(=O)Oc1ccc2c(C)c3n(c(=O)c2c1)CCCC3 [8-acetyloxy-1,2,3,4-tetrahydro-11-methyl-6H-benzo[b]quinolizin-6-one] | 19 | 9 | –
21 | O=c1c2cc(O)cc(O)c2c(O)c2n1CCCC2 [1,2,3,4-tetrahydro-8,10,11-trihydroxy-6H-benzo[b]quinolizin-6-one] | 18 | 28 | –
22 | Cc1c2n(c(=O)c3cc(OC(=O)CN)cc(OC(=O)CN)c13)CCCC2 [8,10-bis[(aminoacetyl)oxy]-11-methyl-1,2,3,4-tetrahydro-6H-benzo[b]quinolizine-6-one dihydrochloride] | 99 | – | –
